Measurements as given in the NIST ThermoML archive (doi:10.1016/j.fluid.2010.01.023).
Values joined by “and” are separate entries in the source; they are usually repeats but may differ in a detail not shown here. Equal values may be shown once. Numbers after ± are expanded uncertainties.

Test: xn = mol fraction of the nth substance listed
Details: Fluid (supercritical or subcritical phases), quasistatic thermogram and barogram, x2 = 0.7393

N [ammonia] + O
Details	thermal pressure coefficient
594.84 K, Mass density=120.03 kg/m3	91 ± 3 kPa/K
594.84 K, Mass density=147.43 kg/m3	126 ± 4 kPa/K
595.16 K, Mass density=376.89 kg/m3	205 kPa/K and 295 kPa/K
595.35 K, Mass density=147.43 kg/m3	124 ± 4 kPa/K
595.35 K, Mass density=456.58 kg/m3	451 ± 2 kPa/K
595.53 K, Mass density=342.18 kg/m3	199 ± 1 kPa/K
595.61 K, Mass density=285.71 kg/m3	196 ± 6 kPa/K
595.78 K, Mass density=309.95 kg/m3	200 ± 6 kPa/K
595.78 K, Mass density=376.89 kg/m3	296 ± 2 kPa/K
596.04 K, Mass density=160.07 kg/m3	183 ± 6 kPa/K
596.04 K, Mass density=227.54 kg/m3	195 ± 6 kPa/K
596.47 K, Mass density=308.35 kg/m3	205 ± 6 kPa/K
596.73 K, Mass density=307.35 kg/m3	201 ± 6 kPa/K
596.9 K, Mass density=271.09 kg/m3	199 ± 6 kPa/K
597.08 K, Mass density=342.18 kg/m3	198 ± 1 kPa/K
597.33 K, Mass density=160.07 kg/m3	151 ± 5 kPa/K
597.33 K, Mass density=311.19 kg/m3	199 ± 6 kPa/K
597.33 K, Mass density=376.89 kg/m3	306 ± 2 kPa/K
597.35 K, Mass density=160.07 kg/m3	174 kPa/K and 147 kPa/K
597.42 K, Mass density=295.31 kg/m3	196 ± 6 kPa/K
597.5 K, Mass density=188.05 kg/m3	187 ± 6 kPa/K
597.56 K, Mass density=342.18 kg/m3	197 kPa/K and 261 kPa/K
597.59 K, Mass density=218.92 kg/m3	197 ± 6 kPa/K
597.76 K, Mass density=292.97 kg/m3	199 ± 6 kPa/K
598.19 K, Mass density=224.53 kg/m3	198 ± 6 kPa/K
598.28 K, Mass density=376.89 kg/m3	311 ± 1 kPa/K
598.33 K, Mass density=329 kg/m3	195 kPa/K and 249 kPa/K
598.36 K, Mass density=160.07 kg/m3	140 ± 4 kPa/K
598.45 K, Mass density=320.33 kg/m3	197 ± 6 kPa/K
598.54 K, Mass density=297.6 kg/m3	191 ± 6 kPa/K
598.57 K, Mass density=301.94 kg/m3	199 ± 6 kPa/K
598.63 K, Mass density=291.16 kg/m3	201 ± 6 kPa/K
598.71 K, Mass density=297.6 kg/m3	192 ± 6 kPa/K
598.96 K, Mass density=243.97 kg/m3	201 ± 6 kPa/K
598.96 K, Mass density=320.33 kg/m3	192 kPa/K and 246 kPa/K
598.97 K, Mass density=376.89 kg/m3	311 ± 1 kPa/K
599.05 K, Mass density=160.07 kg/m3	139 ± 4 kPa/K
599.05 K, Mass density=299.79 kg/m3	192 ± 6 kPa/K
599.05 K, Mass density=329 kg/m3	258 ± 9 kPa/K
599.14 K, Mass density=160.07 kg/m3	137 ± 4 kPa/K
599.22 K, Mass density=214.43 kg/m3	201 ± 6 kPa/K
599.42 K, Mass density=312.91 kg/m3	192 kPa/K and 244 kPa/K
599.44 K, Mass density=320.33 kg/m3	250 ± 8 kPa/K
599.52 K, Mass density=206.01 kg/m3	198 ± 6 kPa/K
599.57 K, Mass density=311.19 kg/m3	193 kPa/K and 240 kPa/K
599.57 K, Mass density=456.58 kg/m3	456 ± 2 kPa/K
599.67 K, Mass density=309.95 kg/m3	192 kPa/K and 236 kPa/K
599.78 K, Mass density=308.35 kg/m3	192 kPa/K and 234 kPa/K
599.89 K, Mass density=307.35 kg/m3	192 kPa/K and 231 kPa/K
599.91 K, Mass density=295.31 kg/m3	196 ± 6 kPa/K
600.02 K, Mass density=305.44 kg/m3	192 kPa/K and 229 kPa/K
600.17 K, Mass density=195.99 kg/m3	195 ± 6 kPa/K
600.17 K, Mass density=303.47 kg/m3	192 kPa/K and 229 kPa/K
600.29 K, Mass density=301.94 kg/m3	192 kPa/K and 228 kPa/K
600.48 K, Mass density=299.79 kg/m3	193 kPa/K and 226 kPa/K
600.59 K, Mass density=309.95 kg/m3	248 ± 9 kPa/K
600.63 K, Mass density=297.6 kg/m3	193 kPa/K and 225 kPa/K
600.68 K, Mass density=230.31 kg/m3	200 ± 6 kPa/K
600.77 K, Mass density=308.35 kg/m3	240 ± 8 kPa/K
600.81 K, Mass density=295.31 kg/m3	193 kPa/K and 224 kPa/K
600.93 K, Mass density=292.97 kg/m3	194 kPa/K and 224 kPa/K
600.94 K, Mass density=260.02 kg/m3	193 ± 6 kPa/K
600.94 K, Mass density=305.44 kg/m3	237 ± 7 kPa/K
601.02 K, Mass density=291.16 kg/m3	192 ± 6 kPa/K
601.02 K, Mass density=342.18 kg/m3	281 ± 1 kPa/K
601.05 K, Mass density=291.16 kg/m3	193 kPa/K and 223 kPa/K
601.11 K, Mass density=320.33 kg/m3	257 ± 8 kPa/K
601.16 K, Mass density=188.05 kg/m3	186 kPa/K and 168 kPa/K
601.19 K, Mass density=227.54 kg/m3	200 ± 6 kPa/K
601.28 K, Mass density=214.43 kg/m3	203 ± 6 kPa/K
601.28 K, Mass density=301.94 kg/m3	234 ± 7 kPa/K
601.34 K, Mass density=285.71 kg/m3	196 kPa/K and 222 kPa/K
601.37 K, Mass density=206.01 kg/m3	199 ± 6 kPa/K
601.37 K, Mass density=224.53 kg/m3	201 ± 6 kPa/K
601.45 K, Mass density=297.6 kg/m3	225 ± 7 kPa/K
601.45 K, Mass density=299.79 kg/m3	239 ± 7 kPa/K
601.54 K, Mass density=295.31 kg/m3	238 ± 8 kPa/K
601.71 K, Mass density=230.31 kg/m3	202 ± 6 kPa/K
601.71 K, Mass density=376.89 kg/m3	327 ± 1 kPa/K
601.75 K, Mass density=195.99 kg/m3	195 kPa/K and 181 kPa/K
602.05 K, Mass density=218.92 kg/m3	201 ± 6 kPa/K
602.05 K, Mass density=271.09 kg/m3	197 kPa/K and 217 kPa/K
602.22 K, Mass density=312.91 kg/m3	261 ± 8 kPa/K
602.26 K, Mass density=206.01 kg/m3	199 kPa/K and 188 kPa/K
602.31 K, Mass density=307.35 kg/m3	241 ± 7 kPa/K
602.39 K, Mass density=376.89 kg/m3	320 ± 1 kPa/K
602.45 K, Mass density=260.02 kg/m3	199 kPa/K and 215 kPa/K
602.65 K, Mass density=456.58 kg/m3	458 ± 2 kPa/K
602.74 K, Mass density=214.43 kg/m3	202 kPa/K and 195 kPa/K
602.74 K, Mass density=342.18 kg/m3	286 ± 1 kPa/K
602.85 K, Mass density=218.92 kg/m3	202 kPa/K and 198 kPa/K
602.91 K, Mass density=243.97 kg/m3	202 kPa/K and 208 kPa/K
602.96 K, Mass density=224.53 kg/m3	202 kPa/K and 200 kPa/K
602.96 K, Mass density=230.31 kg/m3	202 kPa/K and 204 kPa/K
602.97 K, Mass density=227.54 kg/m3	202 kPa/K and 203 kPa/K
603.08 K, Mass density=311.19 kg/m3	256 ± 8 kPa/K
603.34 K, Mass density=206.01 kg/m3	182 ± 6 kPa/K
603.76 K, Mass density=218.92 kg/m3	196 ± 6 kPa/K
603.85 K, Mass density=214.43 kg/m3	191 ± 6 kPa/K
603.85 K, Mass density=227.54 kg/m3	203 ± 6 kPa/K
604.11 K, Mass density=224.53 kg/m3	200 ± 6 kPa/K
604.11 K, Mass density=230.31 kg/m3	205 ± 6 kPa/K
604.36 K, Mass density=243.97 kg/m3	210 ± 6 kPa/K
605.39 K, Mass density=329 kg/m3	275 ± 8 kPa/K
605.47 K, Mass density=147.43 kg/m3	120 ± 4 kPa/K
606.58 K, Mass density=376.89 kg/m3	333 ± 1 kPa/K
606.76 K, Mass density=195.99 kg/m3	172 ± 5 kPa/K
607.78 K, Mass density=342.18 kg/m3	290 ± 1 kPa/K
607.95 K, Mass density=376.89 kg/m3	332 ± 1 kPa/K
608.04 K, Mass density=309.95 kg/m3	261 ± 8 kPa/K
608.55 K, Mass density=160.07 kg/m3	131 ± 4 kPa/K
609.42 K, Mass density=320.33 kg/m3	279 ± 8 kPa/K
609.48 K, Mass density=195.99 kg/m3	168 ± 5 kPa/K
609.71 K, Mass density=308.35 kg/m3	272 ± 8 kPa/K
609.99 K, Mass density=295.31 kg/m3	250 ± 8 kPa/K
610.25 K, Mass density=312.91 kg/m3	270 ± 8 kPa/K
610.59 K, Mass density=311.19 kg/m3	265 ± 8 kPa/K
610.85 K, Mass density=307.35 kg/m3	266 ± 8 kPa/K
611.44 K, Mass density=299.79 kg/m3	257 ± 8 kPa/K
611.55 K, Mass density=342.18 kg/m3	299 ± 1 kPa/K
611.61 K, Mass density=230.31 kg/m3	209 ± 6 kPa/K
611.61 K, Mass density=301.94 kg/m3	259 ± 8 kPa/K
612.63 K, Mass density=376.89 kg/m3	342 ± 1 kPa/K
615.35 K, Mass density=160.07 kg/m3	131 ± 4 kPa/K
616.03 K, Mass density=311.19 kg/m3	277 ± 9 kPa/K
616.12 K, Mass density=312.91 kg/m3	269 ± 8 kPa/K
616.28 K, Mass density=309.95 kg/m3	261 ± 8 kPa/K
616.37 K, Mass density=329 kg/m3	285 ± 9 kPa/K
617.05 K, Mass density=299.79 kg/m3	260 ± 8 kPa/K
618.4 K, Mass density=342.18 kg/m3	304 ± 1 kPa/K
620.1 K, Mass density=297.6 kg/m3	260 ± 8 kPa/K
624.91 K, Mass density=160.07 kg/m3	132 ± 4 kPa/K
633.33 K, Mass density=160.07 kg/m3	134 ± 4 kPa/K
